Test results as given in patent US20040141944A1, “Inhibition of xenoreactive antibodies” (priority 1998, published 2004).

Assays:
[1] = test system: xenoreactive IgG (X IgG) and xenoreactive IgM (X IgM); assay: effect of TPC on xenoreactive antibody levels in cynomolgous monkeys; type: in vivo
Experimental: TPC molecule 410S was prepared as described in Example 5. 410S or PEG control was administered to cynomolgous monkeys in doses of either 50 mg or 250 mg every 3 days for 2 weeks. Blood was drawn for serum before and after each administration. During the subsequent 2 week period, blood was drawn each Monday and Friday. Serum samples were analyzed for xenoreactive IgG (X IgG) and xenoreactive IgM (X IgM).

xenoreactive antibodies = assay: TPC treatment with discordant xenotransplant (pig heart) in cynomolgous monkeys; type: in vivo
Experimental: The TPC molecule 410S was prepared as described above in Example 5. Three monkeys received 250 mg TPC (# 19-97, 18-97, 21-97), and two monkeys received 250 mg control vehicle (#28-97, 23-97) every 3 days for 2 weeks (total 6 doses/animal) via IV infusion. 250 mg/5 mL per vial was supplied as sterile solution to be injected into 50 ML sterile physiological saline in an IV bag and administered IV at a rate of approximately 2-3 mLs/min. Prior to administration and 15-60 minutes after administration was complete, 1-3 mLs of blood was drawn for serum from each monkey at a site distant from the site of administration. On the day of the 6th dose, each monkey underwent a heterotopic heart transplant following drug infusion. A heart from a transgenic pig which expresses human CD59 and human CD55 was placed in the abdominal position as described (Byrne, et al., 1997, Transplantation 63:149-155) and remained in place up to 6 hours before being explanted.
Following the transplant and explant, the monkeys continued infusion of either TPC or control vehicle, as above, once per day for 9 days. Blood was drawn for serum analysis before and after each administration. The monkeys were monitored for at least 15 days after cessation of TPC administration, and blood was drawn 2 times per week for serum analysis. One monkey died 2 days post-transplant.

[2] = test system: circulating anti-Gal ASC (IgM and IgG); assay: in vivo effects of TPC administration on circulating anti-Gal ASC (ELISPOT); design: species or system cynomologous monkeys
Experimental: To each well of the first 10 columns of a sterile hydrazine modified polystyrene 96-well plate (Corning Costar, Cambridge, Mass.), 100 μL per well of a solution containing 3.2 mg/mL αGal(1,3)Gal β 1-4 GlcNAc, 3.1 mg/mL EDC and 2.4 mg/mL NHS were added in a darkened cold room and the reaction proceeded for four hours. After careful washing with sterile H2O, the plates were completely covered with plastic strips and stored at 4° C. until use. Plates were blocked with sterile 400 ul/well of PBS/1% HSA for 2 hours at 37° C. Peripheral blood mononuclear cells were isolated by Ficoll-Hypaque (specific gravity, 1.077 g/mL; Pharmacia Fine Chemicals, Piscatawy, N.J.) density gradients at 400 g for 30 min. at 22° C. Low density mononuclear cells at the interfaces were harvested, washed twice by centrifugation (400 g for 10 min.) and resuspended in serum-free complete culture medium consisting of RPMI 1640 (GIBCO, Grand Island, N.Y.) supplemented with 1% HSA, 2 mM L-glutamine, and 100 U/mL penicillin/100 ug/mL streptomycin (GIBCO, Grand Island, N.Y.). Manual hemacytometer cell counts and viability determinations were performed using trypan blue exclusion dye. Thereafter, serial dilutions of PBMNCs (starting at 5×10^5 cells) in 100 ul of serum-free complete culture medium were added to each well and incubated for 18-24 hours at 37° C. in 5% CO2. After washing 8 times using PBS/0.1% Tween-20, the plates were incubated with biotinylated isotype specific goat anti-human Abs (biotin goat anti-human IgM Cat#62-7540; biotin goat anti-human IgG (H&L) Cat# 62-7140, Zymed, San Francisco, Calif.)(1:1000) at 37° C. for 4 hours. After washing, streptavidin conjugated alkaline phosphatase (Cat# 43-4322, Zymed, San Francisco, Calif.) (1:1000) was added for 30 min. at 37° C. Finally, after washing an additional 8 times with PBS/0.1% Tween-20, 5-Bromo-4-chloro-3indolyl-phosphate (Cat# B-8503, Sigma, St. Louis, Mo.) dissolved in 1% low-melt sea-plaque agarose (FMC Bioproducts, Cat#50101) was added as gel substrate to each well. Plates were incubated overnight in the dark at room temperature and single Ab-secreting, spot forming cells (ASC) were visualized, analyzed and counted under low magnification using an inverted phase microscope. Data represents total isotype specific anti-gal Ab-secreting cells/10^6 PBMNCs, calculated from serially diluted cell samples.
To investigate the in vivo response of circulating anti-Gal ASC to TPC administration, we measured the number of ASC per 10^6 peripheral blood mononuclear cells isolated from cynomologous monkeys treated with either TPC (410S) or blocked-PEG as control. Blocked PEG is a 4-arm, 10,000 MW PEG-amine that was reacted with acetic anhydride in order to block the amine-groups of the PEG. Briefly, heparinized peripheral blood samples (2-3 mL) from TPC and PEG treated monkeys were obtained prior to experimentation, after 6 dosages of TPC, 7 days following porcine heart transplantation with daily infusions, 7 days post infusion termination, and 18 days post infusion. Mononuclear cells were isolated via Ficoll-Hypaque gradient centrifugation and assayed for anti-Gal IgM and IgG ASC using the ELISPOT assay as described in Example 15. […] In contrast, the number of IgG ASC in the PEG treated animal increased 14.9-fold with no detectable change in the number of IgM ASC. Seven days after the termination of TPC treatment, 14 days post transplantation, circulating IgG and IgM ASC were 27-84% and 1.3-9.8% of baseline values, respectively. In the PEG treated monkey, IgG ASC were 4.4 above baseline and IgM ASC levels reduced 51%.

[3] = day 7 post transplantation (porcine transgenic heart), daily TPC
[4] = seven days after termination of TPC treatment, 14 days post transplantation

## (αGal(1,3)Gal β 1-4 GlcNAc)4-PEG [Example 410S]
[1]; 50 mg and 250 mg doses, compared with the IgM effect
  effect on anti-Gal IgG levels: the effect was not as dramatic
[1]; 50 mg animals, 15 days post-treatment
  anti-Gal IgM level, % of the initial level: ~40%
[1]; 50 mg dose every 3 days, after 6 TPC treatments
  anti-Gal IgM level, % of the initial level: approximately 15%
[1]; 250 mg animals, 15 days post-treatment
  anti-Gal IgM level, % of the predosing level: 15%
[1]; 250 mg dose every 3 days, after 6 TPC treatments
  anti-Gal IgM level, % of the initial level: approximately 5%
Xenoreactive antibodies; 250 mg TPC, during the 9 days of TPC administration following explant of the pig heart
  xenoreactive antibody levels: maintained low levels
Xenoreactive antibodies; following cessation of TPC
  XNA levels: rose, but not as dramatically as in the non-TPC-treated control
[2]; 18 days post TPC termination
  IgG ASC values: returned to near normal baseline values
[2]; [3]
  circulating IgG ASC levels decreased: 70-99.7%
  circulating IgM ASC levels decreased: 98.5-100%
[2]; following 6 dosages of TPC over 18 days
  circulating anti-Gal ASC (IgM and IgG) numbers inhibited: 70-99%
[2]; [4]
  circulating IgG ASC, % of baseline values: 27-84%
  circulating IgM ASC, % of baseline values: 1.3-9.8%
